Activity and inhibition data for two compounds are collected here from ChEMBL document CHEMBL2177086, “Design and synthesis of a stable oxidized phospholipid mimic with specific binding recognition for macrophage scavenger receptors” (J Med Chem, 2012).

A short description of data set [1]: Binding affinity to monoclonal antibody E06 by solid phase chemiluminescent immunoassay.
Data set [2] deals with J774. As to the kind of experiment: Cytotoxicity against mouse J774 macrophages assessed as effect on protein content up to 72 hrs. Format: cell-based. The following applies: j774, 72 h.
Data set [3] addresses Platelet glycoprotein 4 (Mus musculus) (UniProt Q08857). The data set can be described thus: Displacement of Bt-CuOxLDL from CD36 receptor in mouse J774 cells after 2 hrs by chemiluminescent assay. Format: cell-based.
The target of data set [4] is Platelet glycoprotein 4 (Homo sapiens) (UniProt P16671). As to the kind of experiment: Displacement of CuOxLDL from CD36 receptor expressed in CHO cells. The format is cell-based.
Sequence of Platelet glycoprotein 4 (Homo sapiens) (P16671 whole entry): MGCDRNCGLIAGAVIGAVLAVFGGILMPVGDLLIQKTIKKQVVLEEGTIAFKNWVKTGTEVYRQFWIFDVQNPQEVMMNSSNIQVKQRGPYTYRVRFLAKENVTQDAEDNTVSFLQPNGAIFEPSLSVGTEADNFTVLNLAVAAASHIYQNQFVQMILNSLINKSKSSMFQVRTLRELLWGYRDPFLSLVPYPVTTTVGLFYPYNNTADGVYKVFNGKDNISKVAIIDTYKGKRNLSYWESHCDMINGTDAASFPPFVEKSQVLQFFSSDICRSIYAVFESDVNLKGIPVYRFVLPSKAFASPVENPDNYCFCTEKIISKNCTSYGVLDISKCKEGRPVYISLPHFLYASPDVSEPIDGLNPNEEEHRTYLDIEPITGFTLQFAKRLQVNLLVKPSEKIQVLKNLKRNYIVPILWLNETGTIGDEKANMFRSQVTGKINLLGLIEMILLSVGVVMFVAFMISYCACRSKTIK
Data set [5] concerns J774. As to the kind of experiment: Cytotoxicity against mouse J774 macrophages assessed as effect on cell number up to 72 hrs. The format is cell-based. The following applies: j774, 72 h.

Active and inactive are the calls of the source. No cut-off for these calls is given here.

Sequence of Platelet glycoprotein 4 (Mus musculus) (Q08857 whole entry): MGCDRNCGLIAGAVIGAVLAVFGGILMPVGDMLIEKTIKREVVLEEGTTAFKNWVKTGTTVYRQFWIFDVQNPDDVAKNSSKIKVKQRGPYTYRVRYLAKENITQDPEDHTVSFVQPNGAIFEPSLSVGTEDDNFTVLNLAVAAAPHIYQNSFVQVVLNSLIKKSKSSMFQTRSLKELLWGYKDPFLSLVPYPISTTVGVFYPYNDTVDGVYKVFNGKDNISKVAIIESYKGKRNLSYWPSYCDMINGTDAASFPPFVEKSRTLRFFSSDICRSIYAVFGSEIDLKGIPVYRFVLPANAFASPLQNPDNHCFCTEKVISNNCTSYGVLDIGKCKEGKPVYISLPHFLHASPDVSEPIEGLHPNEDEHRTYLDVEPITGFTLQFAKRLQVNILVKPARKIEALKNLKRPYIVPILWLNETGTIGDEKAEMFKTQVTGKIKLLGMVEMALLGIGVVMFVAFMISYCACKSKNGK

In the case of `CCCCCCCCCCCCCCCC(=O)OC[C@H](COP(=O)([O-])OCC[N+](C)(C)C)OC(=O)CCCCN(C)CCCC[C@H](NC(=O)[C@@H](NC(=O)CNC(=O)[C@@H](NC(C)=O)[C@@H](C)O)[C@@H](C)O)C(=O)NCC(=O)NCC(=O)O`, the outcome in data set [1] and in data set [4] was Active. The figures for the Activity entry (in the data set on J774 [2]; in data set [3]; in the data set with J774 [5]) were “Non-toxic”, more than 99% and “Non-toxic”, respectively.

Regarding H-TGTKGG-OH, the inhibition result in data set [3] is “inactive”.
